Assay results published in article PMC8227400, “Novel N-Arylsulfonylindoles Targeted as Ligands of the 5-HT6 Receptor. Insights on the Influence of C-5 Substitution on Ligand Affinity” (Pharmaceuticals, 2021).

Target: 5-HT6 receptor
Details: cited from earlier work
In the case of `COc1ccc2c(c1)c(CCN(C)C)cn2S(=O)(=O)c1ccccc1` [MS-245], the Ki is given as 2.3 nM.

Tested on: not given
Details: not given
With `COc1ccccc1N1CCN(CC(O)c2cn(S(=O)(=O)c3ccc(I)cc3)c3ccc(F)cc23)CC1` (centres unmarked) [4a, 1-(5-fluoro-1-((4-iodophenyl)sulfonyl)-1H-indol-3-yl)-2-(4-(2-methoxyphenyl)piperazin-1-yl) ethan-1-ol] the melting point was 94.5 to 96.4 °C.
`O=S(=O)(c1ccc(I)cc1)n1cc(C(O)CN2CCN(c3ccccn3)CC2)c2cc(F)ccc21` (centres unmarked) [4b, 1-(5-fluoro-1-((4-iodophenyl)sulfonyl)-1H-indol-3-yl)-2-(4-(pyridin-2-yl)piperazin-1-yl)ethan-1-ol] gave a melting point of 135 to 137 °C.
Compound `COc1ccccc1N1CCN(CC(O)c2cn(S(=O)(=O)c3cccc4ccccc34)c3ccc(F)cc23)CC1` (centres unmarked) [4d, 1-(5-fluoro-1-(naphthalen-1-ylsulfonyl)-1H-indol-3-yl)-2-(4-(2-methoxyphenyl)piperazin-1-yl)ethan-1-ol] has a melting point of 181.1 to 183.2 °C.
With `O=S(=O)(c1cccc2ccccc12)n1cc(C(O)CN2CCN(c3ccccn3)CC2)c2cc(F)ccc21` (centres unmarked) [4e, 1-(5-fluoro-1-(naphthalen-1-ylsulfonyl)-1H-indol-3-yl)-2-(4-(pyridin-2-yl)piperazin-1-yl)ethan-1-ol] the melting point was 112 to 114 °C.
`O=S(=O)(c1cccc2ccccc12)n1cc(C(O)CN2CCOCC2)c2cc(F)ccc21` (centres unmarked) [4f, 1-(5-fluoro-1-(naphthalen-1-ylsulfonyl)-1H-indol-3-yl)-2-morpholinoethan-1-ol] gave a melting point of 164.1 to 165.8 °C.
For `O=S(=O)(c1cccc2ccccc12)n1cc(C(O)CN2CCN(c3ncccn3)CC2)c2cc(F)ccc21` (centres unmarked) [4g, 1-(5-fluoro-1-(naphthalen-1-ylsulfonyl)-1H-indol-3-yl)-2-(4-(pyrimidin-2-yl)piperazin-1-yl)ethan-1-ol], the melting point was 100 to 103 °C.
Work on `COc1ccc2c(c1)c(C(O)CN1CCN(c3ccccc3OC)CC1)cn2S(=O)(=O)c1ccc(I)cc1` (centres unmarked) [4j, 1-(1-((4-iodophenyl)sulfonyl)-5-methoxy-1H-indol-3-yl)-2-(4-(2-methoxyphenyl)piperazin-1-yl)ethan-1-ol] yielded a melting point of 101 to 104 °C.
Work on `COc1ccc2c(c1)c(C(O)CN1CCOCC1)cn2S(=O)(=O)c1ccc(I)cc1` (centres unmarked) [4k, 1-(1-((4-iodophenyl)sulfonyl)-5-methoxy-1H-indol-3-yl)-2-morpholinoethan-1-ol] yielded a melting point of 120 to 124 °C.
Work on `COc1ccc2c(c1)c(C(O)CN1CCN(c3ccccc3OC)CC1)cn2S(=O)(=O)c1cccc2ccccc12` (centres unmarked) [4l, 1-(5-methoxy-1-(naphthalen-1-ylsulfonyl)-1H-indol-3-yl)-2-(4-(2-methoxyphenyl)piperazin-1-yl)ethan-1-ol] yielded a melting point of 105 to 107 °C.
Work on `COc1ccc2c(c1)c(C(O)CN1CCOCC1)cn2S(=O)(=O)c1cccc2ccccc12` (centres unmarked) [4m, 1-(5-methoxy-1-(naphthalen-1-ylsulfonyl)-1H-indol-3-yl)-2-morpholinoethan-1-ol] yielded a melting point of 190 to 192 °C.
